Article PMC6212553, “Baicalein Enhances the Oral Bioavailability and Hepatoprotective Effects of Silybin Through the Inhibition of Efflux Transporters BCRP and MRP2” (Frontiers in Pharmacology, 2018)

Columns and labels:
[1] = ref Lai et al., 2003, cited from earlier work
[2] = tested on: sandwich-cultured rat hepatocytes; assay: Biliary excretion in sandwich-cultured rat hepatocytes (SCH); format: in vitro ADME
Experimental: Sandwich-cultured rat hepatocytes (SCHs) model was established based on a previously described method with minor modifications ([Swift et al., 2010]). In brief, primary rat hepatocytes were prepared from male Sprague Dawley (SD) rats (220–270 g) using collagenase perfusion as described previously ([Liu et al., 1999]) and then were plated on 6-well plates at a density of 7.4 × 10^5 cells/2 ml/well. Approximately 24 h later, hepatocytes were overlaid with 2 ml of BD Matrigel basement membrane matrix in DMEM (0.25 mg/ml) containing 1% (v/v) insulin/transferrin/selenium culture supplement, […], 2 mM L-glutamine, and 1% penicillin-streptomycin. Hepatocytes were cultured for 4 days with daily medium replacements until the canalicular network was extensively formatted between the cells before the experiment. Evaluation of biliary excretion in SCHs was carried out according to a previously described method ([Liu et al., 1999]). […] Samples were quantified by LC-MS/MS analysis, and the transport function was normalized to the protein content of the hepatocytes. […] Later, the residues were reconstituted with 60 μl of 30% methanol in water containing 1% ascorbic acid, and an aliquot of 10 μl of final solution after centrifugation was analyzed by LC-MS/MS. […] The quantitative linear range for silybin A and B was 5 to 12500 ng/ml.

[3] = tested on: CCl4-induced liver injury model; assay: CCl4-induced acute liver injury in rats; format: in vivo, SD rats; design: Nerosis (histologic score, liver H&E) / Haemorrhage (histologic score, liver H&E) / Inflammation (histologic score, liver H&E) / Steatosis (histologic score, liver H&E): scale not given here
Experimental: Male SD rats were randomly divided into seven groups: […] (2) Group II, given blank vehicle p.o. for 7 days; (3) Group III, treatment with silybin (100 mg/kg bodyweight, p.o.) for 7 days; […] After 24 h of CCl4 treatment, all rats were sacrificed under ether anesthesia. Blood samples were collected from the abdominal aorta for biochemical estimations. The liver was immediately removed and weighed with a large portion of the liver frozen in liquid nitrogen. The pathological liver changes were examined by hematoxylin and eosin (H&E) staining, which was performed by a pathologist who was blinded to this study. The serum levels of ALT, AST, AKP, and SOD as well as the cytokines TNF- α, IL-6, and IL-1β were detected by the assay kit, according to the manufacturer’s instructions.

Caco-2 cells = assay: Bidirectional transport of silybin across Caco-2 cell monolayers; format: in vitro ADME, Human; conditions: Caco-2 monolayers, silybin 10 μM
Experimental: Human colon epithelial cell line (Caco-2) was purchased from American Type Culture Collection (Manassas, VA, United States) and frozen at -80°C. Wild type MDCK II, MDR1-MDCK II, BCRP-MDCK II, and MRP2-MDCK II cells were kindly supplied by the Netherlands Cancer Institute (Amsterdam, Netherlands). Transport study was carried out with Caco-2 cells, and MDCK II cells were transfected using a previously established method with slight modifications ([Yuan et al., 2017]). The Caco-2 cells were cultured at 37°C/5% CO2 in Dulbecco's modified Eagle's medium (DMEM) supplemented with 10% fetal bovine serum, 1% nonessential amino acids, and 1% penicillin-streptomycin. The Caco-2 cells were seeded onto polyester filter membranes in a 12-well Transwell® plate (Corning Costar Co., NY, United States) with 0.6 × 10^5 cells/cm^2. The monolayer cells were used for transport assays between 21 and 23 days. The MDCKII cells were seeded on transwell plates with a density of 2.0 × 10^5 cells/cm^2 and grown for 4-5 days to form a confluent monolayer. Bidirectional transport assays for Caco-2 and MDCK II cells were performed by adding silybin (10 μM) in assay buffer into either the apical (AP; A-to-B) or basolateral (BL; […] For inhibition studies, Caco-2 or MDCK II cell monolayers in both apical and basolateral chambers were preincubated with the inhibitor for 30 min. The fluorescence intensity of the sample collected from the AP or BL side was immediately detected in a 96-well black plate by the Microplate UV/VIS spectrophotometer (TECAN Infinite […], Männedorf, Switzerland). For liquid chromatography tandem-mass spectrometry (LC-MS/MS) analysis, the sample (100 μl) was mixed with methanol (50 μl) containing internal standard (25 ng/ml) and was stored at -80°C. The formula for calculating apparent permeability coefficient (Papp) values is as follows: (1) […] where dQ/dt (mM/s) represents the rate of permeation of the drug across the cells, C0 (mM) refers to the concentration in the donor compartment at time zero calculated from dosing solution, and A (cm^2) refers to the area of the cell monolayer. Papp (B-A) is the Papp value measured in the B to A direction, and Papp (A-B) is the Papp value measured in the A to B direction. The efflux ratio is given as ER = Papp (B to A)/Papp (A to B).

BCRP = target: T1, BCRP (Homo sapiens, UniProt Q9UNQ0); assay: Bidirectional transport of pheophorbide A in MDCKII-BCRP cells; format: cell-based; conditions: dog, absence of inhibitor
T1 construct: host or cells: MDCK II (canine kidney) cells transfected with BCRP
T1 sequence (Q9UNQ0 1-655): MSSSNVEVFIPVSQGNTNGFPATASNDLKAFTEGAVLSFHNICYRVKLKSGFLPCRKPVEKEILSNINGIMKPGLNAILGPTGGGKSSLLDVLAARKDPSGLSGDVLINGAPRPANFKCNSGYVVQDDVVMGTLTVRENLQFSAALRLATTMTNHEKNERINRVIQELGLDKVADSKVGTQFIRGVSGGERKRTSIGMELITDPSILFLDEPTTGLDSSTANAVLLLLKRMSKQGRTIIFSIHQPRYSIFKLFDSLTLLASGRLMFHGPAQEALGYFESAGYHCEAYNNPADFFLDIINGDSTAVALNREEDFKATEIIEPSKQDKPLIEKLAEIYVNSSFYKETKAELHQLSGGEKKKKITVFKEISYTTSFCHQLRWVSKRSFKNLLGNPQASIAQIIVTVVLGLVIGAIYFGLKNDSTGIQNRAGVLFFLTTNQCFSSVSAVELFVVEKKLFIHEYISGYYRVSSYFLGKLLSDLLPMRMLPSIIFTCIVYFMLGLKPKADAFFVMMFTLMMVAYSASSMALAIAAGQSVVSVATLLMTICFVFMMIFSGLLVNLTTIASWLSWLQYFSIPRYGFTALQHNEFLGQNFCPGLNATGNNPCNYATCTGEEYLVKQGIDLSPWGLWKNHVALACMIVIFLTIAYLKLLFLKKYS
Experimental: (§1) Human colon epithelial cell line (Caco-2) was purchased from American Type Culture Collection (Manassas, VA, United States) and frozen at -80°C. Wild type MDCK II, MDR1-MDCK II, BCRP-MDCK II, and MRP2-MDCK II cells were kindly supplied by the Netherlands Cancer Institute (Amsterdam, Netherlands). […] The Caco-2 cells were cultured at 37°C/5% CO2 in Dulbecco’s modified Eagle’s medium (DMEM) supplemented with 10% fetal bovine serum, 1% nonessential amino acids, and 1% penicillin-streptomycin. The Caco-2 cells were seeded onto polyester filter membranes in a 12-well Transwell® plate (Corning Costar Co., NY, United States) with 0.6 × 10^5 cells/cm^2. […]
(§2) For inhibition studies, Caco-2 or MDCK II cell monolayers in both apical and basolateral chambers were preincubated with the inhibitor for 30 min. The fluorescence intensity of the sample collected from the AP or BL side was immediately detected in a 96-well black plate by the Microplate UV/VIS spectrophotometer (TECAN Infinite M200 PRO, Männedorf, Switzerland). […]
(§3) where dQ/dt (mM/s) represents the rate of permeation of the drug across the cells, C0 (mM) refers to the concentration in the donor compartment at time zero calculated from dosing solution, and A (cm^2) refers to the area of the cell monolayer. Papp (B-A) is the Papp value measured in the B to A direction, and Papp (A-B) is the Papp value measured in the A to B direction. […]

MDR1 = target: T2, MDR1 (Homo sapiens, UniProt P08183); assay: Bidirectional transport of Rho123 in MDCKII-MDR1 cells; format: cell-based; conditions: dog, MDCK-MDR1, absence of inhibitor
T2 construct: host or cells: MDCK II (canine kidney) cells transfected with MDR1
T2 sequence (P08183 whole entry): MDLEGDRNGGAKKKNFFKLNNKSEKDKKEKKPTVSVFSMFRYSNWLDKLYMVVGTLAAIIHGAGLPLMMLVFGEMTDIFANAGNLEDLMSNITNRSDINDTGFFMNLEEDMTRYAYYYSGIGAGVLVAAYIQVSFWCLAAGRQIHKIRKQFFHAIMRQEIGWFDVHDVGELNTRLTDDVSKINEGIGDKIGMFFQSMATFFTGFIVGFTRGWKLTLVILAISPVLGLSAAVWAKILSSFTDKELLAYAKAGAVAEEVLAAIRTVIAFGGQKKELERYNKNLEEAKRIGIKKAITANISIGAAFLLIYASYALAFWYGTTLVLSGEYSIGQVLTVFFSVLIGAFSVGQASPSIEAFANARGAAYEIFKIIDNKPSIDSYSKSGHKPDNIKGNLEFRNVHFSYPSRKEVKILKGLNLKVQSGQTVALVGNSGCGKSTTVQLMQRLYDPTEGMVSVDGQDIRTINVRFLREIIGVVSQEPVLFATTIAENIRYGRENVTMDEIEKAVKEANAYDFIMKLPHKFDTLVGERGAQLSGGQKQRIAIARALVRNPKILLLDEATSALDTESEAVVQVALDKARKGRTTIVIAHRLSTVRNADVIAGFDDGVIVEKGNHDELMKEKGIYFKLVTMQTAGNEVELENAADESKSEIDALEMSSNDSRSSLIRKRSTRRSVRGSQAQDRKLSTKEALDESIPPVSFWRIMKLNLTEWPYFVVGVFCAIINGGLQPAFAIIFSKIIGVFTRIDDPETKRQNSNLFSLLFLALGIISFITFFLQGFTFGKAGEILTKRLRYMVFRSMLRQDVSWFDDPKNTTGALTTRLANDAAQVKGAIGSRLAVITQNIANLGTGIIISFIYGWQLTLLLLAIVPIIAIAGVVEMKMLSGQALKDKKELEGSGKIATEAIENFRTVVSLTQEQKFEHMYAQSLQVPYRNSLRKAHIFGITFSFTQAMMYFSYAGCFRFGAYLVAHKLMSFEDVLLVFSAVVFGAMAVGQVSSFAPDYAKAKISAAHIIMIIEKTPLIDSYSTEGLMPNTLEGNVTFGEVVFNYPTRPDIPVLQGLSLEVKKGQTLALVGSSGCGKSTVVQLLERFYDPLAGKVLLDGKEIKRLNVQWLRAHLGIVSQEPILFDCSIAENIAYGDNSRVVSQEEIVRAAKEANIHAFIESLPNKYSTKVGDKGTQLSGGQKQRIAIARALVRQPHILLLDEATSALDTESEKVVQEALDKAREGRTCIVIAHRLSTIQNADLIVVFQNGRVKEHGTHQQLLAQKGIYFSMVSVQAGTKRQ
Experimental: as §1, §2, §3

MRP2 = target: T3, MRP2 (Homo sapiens, UniProt Q92887); assay: Bidirectional transport of CDCFDA in MDCKII-MRP2 cells; format: cell-based
T3 construct: host or cells: MDCK II (canine kidney) cells transfected with MRP2
T3 sequence (Q92887 whole entry): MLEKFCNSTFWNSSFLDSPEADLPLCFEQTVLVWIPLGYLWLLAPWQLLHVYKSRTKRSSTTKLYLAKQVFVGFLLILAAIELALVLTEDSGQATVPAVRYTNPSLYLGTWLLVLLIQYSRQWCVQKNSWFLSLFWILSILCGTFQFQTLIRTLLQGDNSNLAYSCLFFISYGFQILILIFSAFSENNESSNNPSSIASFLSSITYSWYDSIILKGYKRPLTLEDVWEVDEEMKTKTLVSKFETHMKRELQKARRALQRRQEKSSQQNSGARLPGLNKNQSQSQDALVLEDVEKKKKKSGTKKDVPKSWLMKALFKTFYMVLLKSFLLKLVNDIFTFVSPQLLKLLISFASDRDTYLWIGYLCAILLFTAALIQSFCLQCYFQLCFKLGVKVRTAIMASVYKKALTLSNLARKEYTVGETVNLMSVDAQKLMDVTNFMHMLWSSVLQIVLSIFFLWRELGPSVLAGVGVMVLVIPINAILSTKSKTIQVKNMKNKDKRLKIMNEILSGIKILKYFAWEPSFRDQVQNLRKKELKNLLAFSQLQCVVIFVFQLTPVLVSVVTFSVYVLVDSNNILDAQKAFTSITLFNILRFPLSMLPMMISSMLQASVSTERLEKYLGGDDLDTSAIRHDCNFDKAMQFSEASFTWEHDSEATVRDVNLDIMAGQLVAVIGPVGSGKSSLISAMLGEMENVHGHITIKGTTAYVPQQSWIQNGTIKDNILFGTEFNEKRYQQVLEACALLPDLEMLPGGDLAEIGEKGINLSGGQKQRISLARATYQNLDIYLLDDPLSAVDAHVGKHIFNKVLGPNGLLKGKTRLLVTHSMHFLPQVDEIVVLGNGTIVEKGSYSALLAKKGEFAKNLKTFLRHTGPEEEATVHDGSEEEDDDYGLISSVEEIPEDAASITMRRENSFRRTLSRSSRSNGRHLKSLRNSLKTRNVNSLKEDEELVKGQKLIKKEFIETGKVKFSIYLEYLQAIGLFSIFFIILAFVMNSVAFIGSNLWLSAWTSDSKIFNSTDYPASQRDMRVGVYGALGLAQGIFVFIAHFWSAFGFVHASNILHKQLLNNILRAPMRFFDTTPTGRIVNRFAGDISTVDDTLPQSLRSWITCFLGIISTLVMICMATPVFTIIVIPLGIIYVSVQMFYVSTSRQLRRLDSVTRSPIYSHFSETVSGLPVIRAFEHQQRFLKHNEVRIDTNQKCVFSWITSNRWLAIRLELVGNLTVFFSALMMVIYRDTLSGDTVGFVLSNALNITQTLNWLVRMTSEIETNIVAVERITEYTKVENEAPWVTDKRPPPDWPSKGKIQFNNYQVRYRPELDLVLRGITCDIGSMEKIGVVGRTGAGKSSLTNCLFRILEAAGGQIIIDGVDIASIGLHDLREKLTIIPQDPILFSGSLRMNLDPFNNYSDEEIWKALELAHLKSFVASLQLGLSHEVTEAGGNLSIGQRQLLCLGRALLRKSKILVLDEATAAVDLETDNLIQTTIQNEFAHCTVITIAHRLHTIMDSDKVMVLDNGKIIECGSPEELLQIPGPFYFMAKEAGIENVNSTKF
Experimental: Human colon epithelial cell line (Caco-2) was purchased from American Type Culture Collection (Manassas, VA, United States) and frozen at -80°C. Wild type MDCK II, MDR1-MDCK II, BCRP-MDCK II, and MRP2-MDCK II cells were kindly supplied by the Netherlands Cancer Institute (Amsterdam, Netherlands). Transport study was carried out with Caco-2 cells, and MDCK II cells were transfected using a previously established method with slight modifications ([Yuan et al., 2017]). The Caco-2 cells were cultured at 37°C/5% CO2 in Dulbecco’s modified Eagle’s medium (DMEM) supplemented with 10% fetal bovine serum, 1% nonessential amino acids, and 1% penicillin-streptomycin. […]
Bidirectional transport assays for Caco-2 and MDCK II cells were performed by adding silybin (10 μM) in assay buffer into either the apical (AP; A-to-B) or basolateral (BL; B-to-A) chamber, and each 100 μl sample was collected at 30, 60, 90, 120, and 180 min. […] The fluorescence intensity of the sample collected from the AP or BL side was immediately detected in a 96-well black plate by the Microplate UV/VIS spectrophotometer (TECAN Infinite M200 PRO, Männedorf, Switzerland). […]
where dQ/dt (mM/s) represents the rate of permeation of the drug across the cells, C0 (mM) refers to the concentration in the donor compartment at time zero calculated from dosing solution, and A (cm^2) refers to the area of the cell monolayer. […]

[4] = 100 mg/kg p.o. 7 days, single agent, CCl4 on day 7

Q: Which “glucuronides/sulfates of baicalein in the plasma or cell” value ([1]; after oral administration or dosing in the Caco-2 cell model, Li et al., 2012) does the source give for `O=c1cc(-c2ccccc2)oc2cc(O)c(O)c(O)c12` [baicalein, 5,6,7-trihydroxyflavone] here?
A: 75.7%

Q: And the absolute absorption ([1]; passive diffusion)?
A: 40%

Q: And the “reduction of the biliary excretion of silybin conjugates” value ([2]; baicalein 25 μM)?
A: ~90%

Q: What about the “Haemorrhage (histologic score, liver H&E)” value [3, 4] of the same compound?
A: 2.2±0.4

Q: And the “Inflammation (histologic score, liver H&E)” value [3, 4]?
A: 2.2±0.8

Q: What about the “Nerosis (histologic score, liver H&E)” value [3, 4] of the same compound?
A: 3.0±0.6

Q: What about the “Steatosis (histologic score, liver H&E)” value [3, 4] of the same compound?
A: 2.3±0.8

Q: What about the “protection of liver injury by baicalein itself” value ([3]; CCl4-induced acute liver injury model) of the same compound?
A: failed to show significant benefits

Q: And the “lowest effective dosage inhibiting efflux transport of silybin” value (Caco-2 cells)?
A: 0.5 µM

Q: Which efflux ratio at 180 min (BCRP) does the source give for `C=Cc1c(C)c2cc3nc(c4c5[nH]c(cc6nc(cc1[nH]2)C(C)=C6CC)c(C)c5C(=O)[C@@H]4C(=O)OC)[C@@H](CCC(=O)O)[C@@H]3C` [pheophorbide A] here?
A: 2.82 ± 0.13

Q: Which efflux ratio at 180 min (MDR1) does the source give for `COC(=O)c1ccccc1-c1c2ccc(=N)cc-2oc2cc(N)ccc12` [Rho123, Rhodamine 123] here?
A: 3.68 ± 0.44

Q: With “5(6)-Carboxy-2′,7′-dichlorofluorescein diacetate [CDCFDA]” as the compound, how does the “efflux ratio of CDCFDA” value (MRP2) read?
A: 3.82 ± 0.51

Q: With `O=C(O)[C@H]1O[C@@H](Oc2cc3oc(-c4ccccc4)cc(=O)c3c(O)c2O)[C@H](O)[C@@H](O)[C@@H]1O` [baicalin] as the compound, how does the “relative absorption compared with baicalein” value ([1]; after oral administration) read?
A: 65%

Q: For `CN(C)C(=O)CCSC(SCCC(=O)O)c1cccc(/C=C/c2ccc3ccc(Cl)cc3n2)c1` (centres unmarked) [MK571], which “effect on biliary excretion of silybin and its conjugates” value ([2]; MK571 50 μM, positive control) is on record?
A: significantly inhibited
